These results are taken from PMC8550792, “Evolution of kinase polypharmacology across HSP90 drug discovery” (Cell Chemical Biology, 2021).

Common to all, as to assay: biochemical
Common to all, as to type: biochemical

Assay [1] deals with T1, 382 unique human kinases (Homo sapiens, UniProt Q00536).
T1 construct: purchased Reaction Biology (HotSpot contract assay)
The conditions noted are these: CDK16/cyclin Y (PCTAIRE), 10 uM; for remaining activity at 10 µM: read-out: % Enzyme Activity (relative to DMSO controls).

Assay [2] addresses T2, 382 unique human kinases (Homo sapiens, UniProt Q9UM73, G1269S).
T2 construct: purchased Reaction Biology (HotSpot contract assay)
The conditions noted are these: ALK (G1269S), 10 uM; for remaining activity at 10 µM: read-out: % Enzyme Activity (relative to DMSO controls).

Assay [3] has as its target T3, 382 unique human kinases (Homo sapiens, UniProt P08581, Y1230D).
T3 construct: purchased Reaction Biology (HotSpot contract assay)
The conditions noted are these: c-MET (Y1230D), compound at 10 uM, duplicate values; for remaining activity at 10 µM: read-out: % Enzyme Activity (relative to DMSO controls).

Assay [4] has as its target T4, 382 unique human kinases (Homo sapiens, UniProt Q9H3Y6).
T4 construct: purchased Reaction Biology (HotSpot contract assay)
The conditions noted are these: SRMS, compound at 10 uM, duplicate values; for remaining activity at 10 µM: read-out: % Enzyme Activity (relative to DMSO controls).

The target of assay [5] is T5, 382 unique human kinases (Homo sapiens, UniProt P54760).
T5 construct: purchased Reaction Biology (HotSpot contract assay)
T5 sequence (P54760 16-987): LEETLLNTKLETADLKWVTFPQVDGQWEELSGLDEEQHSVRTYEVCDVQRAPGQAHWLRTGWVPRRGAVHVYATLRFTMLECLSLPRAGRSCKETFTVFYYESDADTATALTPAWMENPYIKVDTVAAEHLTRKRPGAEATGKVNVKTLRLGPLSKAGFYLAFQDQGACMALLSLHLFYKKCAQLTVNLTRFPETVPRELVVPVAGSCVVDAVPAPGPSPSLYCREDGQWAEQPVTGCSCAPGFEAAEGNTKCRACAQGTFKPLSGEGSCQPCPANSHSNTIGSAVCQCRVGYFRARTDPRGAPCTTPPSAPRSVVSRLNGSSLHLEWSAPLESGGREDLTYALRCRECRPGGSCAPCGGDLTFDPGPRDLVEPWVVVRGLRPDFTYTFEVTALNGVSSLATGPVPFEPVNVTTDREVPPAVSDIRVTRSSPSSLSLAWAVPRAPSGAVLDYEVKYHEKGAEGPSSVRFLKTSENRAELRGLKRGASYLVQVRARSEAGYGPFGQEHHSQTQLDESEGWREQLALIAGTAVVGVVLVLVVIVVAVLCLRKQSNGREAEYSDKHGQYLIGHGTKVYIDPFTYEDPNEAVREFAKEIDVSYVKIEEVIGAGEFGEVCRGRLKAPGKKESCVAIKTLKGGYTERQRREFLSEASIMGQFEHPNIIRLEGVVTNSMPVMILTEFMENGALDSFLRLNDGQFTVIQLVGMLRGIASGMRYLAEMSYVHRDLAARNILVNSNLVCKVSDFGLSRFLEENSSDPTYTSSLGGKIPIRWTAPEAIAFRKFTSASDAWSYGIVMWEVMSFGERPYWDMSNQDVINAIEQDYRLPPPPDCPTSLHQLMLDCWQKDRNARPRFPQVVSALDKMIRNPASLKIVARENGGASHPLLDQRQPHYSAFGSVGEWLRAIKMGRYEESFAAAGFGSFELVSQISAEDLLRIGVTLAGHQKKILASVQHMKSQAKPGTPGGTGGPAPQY
The conditions noted are these: EPHB4, [ATP] 20 µM, compound 10 uM; for remaining activity at 10 µM: read-out: % Enzyme Activity (relative to DMSO controls).

The target in assay [6] is T6, 382 unique human kinases (Homo sapiens, UniProt O95382).
T6 construct: purchased Reaction Biology (HotSpot contract assay)
T6 sequence (O95382 1-1288): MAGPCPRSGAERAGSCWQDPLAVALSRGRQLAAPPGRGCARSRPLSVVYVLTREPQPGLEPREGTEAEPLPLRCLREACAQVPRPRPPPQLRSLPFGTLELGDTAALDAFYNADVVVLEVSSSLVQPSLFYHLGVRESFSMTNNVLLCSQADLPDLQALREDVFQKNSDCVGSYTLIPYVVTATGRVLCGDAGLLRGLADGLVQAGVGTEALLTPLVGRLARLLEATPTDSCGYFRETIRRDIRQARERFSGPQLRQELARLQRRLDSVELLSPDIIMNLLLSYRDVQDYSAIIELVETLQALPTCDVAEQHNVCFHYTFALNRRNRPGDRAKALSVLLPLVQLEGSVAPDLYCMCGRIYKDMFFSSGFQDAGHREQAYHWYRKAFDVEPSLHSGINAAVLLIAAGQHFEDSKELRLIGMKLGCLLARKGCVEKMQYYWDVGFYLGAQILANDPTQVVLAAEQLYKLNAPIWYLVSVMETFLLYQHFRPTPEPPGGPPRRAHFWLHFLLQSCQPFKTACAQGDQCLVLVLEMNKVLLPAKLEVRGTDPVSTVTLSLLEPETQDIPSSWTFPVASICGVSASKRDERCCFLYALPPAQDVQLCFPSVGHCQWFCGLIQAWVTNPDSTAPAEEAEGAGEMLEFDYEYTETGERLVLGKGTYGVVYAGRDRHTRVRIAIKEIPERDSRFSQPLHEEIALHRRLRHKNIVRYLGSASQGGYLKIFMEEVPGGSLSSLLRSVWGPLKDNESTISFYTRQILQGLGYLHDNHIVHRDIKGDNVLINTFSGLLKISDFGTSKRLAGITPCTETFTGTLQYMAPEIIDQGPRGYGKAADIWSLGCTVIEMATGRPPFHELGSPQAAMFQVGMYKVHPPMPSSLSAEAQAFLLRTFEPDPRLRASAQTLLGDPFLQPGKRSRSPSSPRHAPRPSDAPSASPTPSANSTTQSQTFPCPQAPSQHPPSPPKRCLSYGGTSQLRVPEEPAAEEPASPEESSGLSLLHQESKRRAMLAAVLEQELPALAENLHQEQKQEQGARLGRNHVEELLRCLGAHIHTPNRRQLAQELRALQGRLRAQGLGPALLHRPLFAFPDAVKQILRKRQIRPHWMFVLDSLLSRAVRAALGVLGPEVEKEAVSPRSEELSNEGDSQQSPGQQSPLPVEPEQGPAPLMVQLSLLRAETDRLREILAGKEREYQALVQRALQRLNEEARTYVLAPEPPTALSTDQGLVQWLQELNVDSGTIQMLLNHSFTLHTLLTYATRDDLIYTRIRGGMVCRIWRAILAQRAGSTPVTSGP
The conditions noted are these: MEKK6, 10 uM; for remaining activity at 10 µM: read-out: % Enzyme Activity (relative to DMSO controls).

T1 sequence (Q00536 whole entry): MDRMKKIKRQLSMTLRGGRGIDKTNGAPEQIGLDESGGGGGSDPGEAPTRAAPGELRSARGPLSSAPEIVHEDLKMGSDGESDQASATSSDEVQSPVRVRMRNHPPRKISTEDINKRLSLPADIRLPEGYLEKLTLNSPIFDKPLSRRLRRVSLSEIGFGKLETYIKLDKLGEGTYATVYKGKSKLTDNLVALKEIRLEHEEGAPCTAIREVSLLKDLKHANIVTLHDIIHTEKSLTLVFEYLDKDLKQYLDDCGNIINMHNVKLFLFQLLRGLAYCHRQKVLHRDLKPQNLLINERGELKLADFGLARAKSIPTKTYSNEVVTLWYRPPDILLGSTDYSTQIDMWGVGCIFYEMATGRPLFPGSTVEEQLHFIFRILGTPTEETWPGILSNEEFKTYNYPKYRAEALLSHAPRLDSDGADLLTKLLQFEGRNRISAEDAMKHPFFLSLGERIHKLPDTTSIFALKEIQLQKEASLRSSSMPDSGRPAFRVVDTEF
T4 sequence (Q9H3Y6 whole entry): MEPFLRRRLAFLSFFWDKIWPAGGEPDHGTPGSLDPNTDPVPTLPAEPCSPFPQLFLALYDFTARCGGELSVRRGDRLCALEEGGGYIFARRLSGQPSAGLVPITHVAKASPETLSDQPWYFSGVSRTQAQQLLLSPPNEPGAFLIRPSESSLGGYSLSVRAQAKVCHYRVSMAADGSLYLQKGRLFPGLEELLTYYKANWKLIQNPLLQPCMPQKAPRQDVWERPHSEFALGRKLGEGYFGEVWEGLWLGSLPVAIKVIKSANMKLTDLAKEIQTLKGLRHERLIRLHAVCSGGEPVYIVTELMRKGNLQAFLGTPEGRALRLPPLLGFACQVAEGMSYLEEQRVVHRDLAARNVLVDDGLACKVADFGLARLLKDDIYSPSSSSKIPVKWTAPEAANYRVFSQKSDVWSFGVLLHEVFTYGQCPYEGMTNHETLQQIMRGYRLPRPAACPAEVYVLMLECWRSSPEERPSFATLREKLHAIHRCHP
T2 sequence (Q9UM73 19-1620 G1269S): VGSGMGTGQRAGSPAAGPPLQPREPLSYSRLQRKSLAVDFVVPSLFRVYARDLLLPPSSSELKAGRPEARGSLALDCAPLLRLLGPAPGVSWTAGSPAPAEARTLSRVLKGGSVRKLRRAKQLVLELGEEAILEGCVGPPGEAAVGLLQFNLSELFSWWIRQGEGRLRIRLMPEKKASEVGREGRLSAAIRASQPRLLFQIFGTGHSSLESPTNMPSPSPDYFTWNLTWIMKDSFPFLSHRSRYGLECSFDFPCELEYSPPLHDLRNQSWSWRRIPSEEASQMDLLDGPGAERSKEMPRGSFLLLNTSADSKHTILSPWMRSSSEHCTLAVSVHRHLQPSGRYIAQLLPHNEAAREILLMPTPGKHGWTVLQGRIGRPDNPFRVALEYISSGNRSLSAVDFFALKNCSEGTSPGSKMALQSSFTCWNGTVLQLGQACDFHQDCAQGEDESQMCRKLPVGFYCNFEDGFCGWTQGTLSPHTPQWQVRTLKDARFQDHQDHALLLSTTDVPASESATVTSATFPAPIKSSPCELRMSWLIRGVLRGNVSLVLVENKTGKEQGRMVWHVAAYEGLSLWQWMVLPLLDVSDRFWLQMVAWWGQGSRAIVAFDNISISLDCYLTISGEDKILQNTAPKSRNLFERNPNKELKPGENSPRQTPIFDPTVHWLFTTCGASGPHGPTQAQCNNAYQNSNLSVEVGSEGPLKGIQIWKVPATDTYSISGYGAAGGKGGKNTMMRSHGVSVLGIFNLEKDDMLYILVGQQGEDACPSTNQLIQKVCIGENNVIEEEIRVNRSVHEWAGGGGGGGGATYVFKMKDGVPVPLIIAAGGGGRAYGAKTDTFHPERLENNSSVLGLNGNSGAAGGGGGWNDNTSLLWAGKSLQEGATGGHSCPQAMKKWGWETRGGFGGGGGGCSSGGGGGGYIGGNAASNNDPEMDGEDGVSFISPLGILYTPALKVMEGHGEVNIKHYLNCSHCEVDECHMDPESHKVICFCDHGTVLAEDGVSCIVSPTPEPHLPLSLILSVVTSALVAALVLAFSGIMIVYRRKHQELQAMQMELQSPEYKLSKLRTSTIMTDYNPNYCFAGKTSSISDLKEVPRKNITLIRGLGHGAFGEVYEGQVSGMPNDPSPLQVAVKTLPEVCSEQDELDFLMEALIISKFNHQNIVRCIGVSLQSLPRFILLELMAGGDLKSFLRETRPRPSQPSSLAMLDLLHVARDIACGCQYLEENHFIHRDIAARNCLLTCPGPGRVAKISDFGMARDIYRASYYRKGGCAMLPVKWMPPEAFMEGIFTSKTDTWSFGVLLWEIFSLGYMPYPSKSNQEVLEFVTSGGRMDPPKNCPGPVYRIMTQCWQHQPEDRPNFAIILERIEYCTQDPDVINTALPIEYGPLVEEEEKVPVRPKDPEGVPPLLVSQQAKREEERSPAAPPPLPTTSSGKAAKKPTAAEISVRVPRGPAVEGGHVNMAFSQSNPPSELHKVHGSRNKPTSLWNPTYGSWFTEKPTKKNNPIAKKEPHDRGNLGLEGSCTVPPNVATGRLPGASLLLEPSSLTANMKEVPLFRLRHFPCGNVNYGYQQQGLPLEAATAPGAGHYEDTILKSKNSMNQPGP

For the compound `CC(C)c1cc(-c2n[nH]c(=O)n2-c2ccc3c(ccn3C)c2)c(O)cc1O` [Ganetespib (STA9090)], the remaining activity at 10 µM at 382 unique human kinases [1] stood at 78%; on 382 unique human kinases [2] it was 74.6%; on 382 unique human kinases [3] it was 109%; at 382 unique human kinases [4], 109%.
Consider `CC(C)c1cc(-c2n[nH]c(=O)n2-c2ccc3c(ccn3C)c2)c(O)cc1O` [Ganetespib], for which the remaining activity at 10 µM worked out at 33.1% at 382 unique human kinases [5] and 94.2% on 382 unique human kinases [6].
`CCNC(=O)c1noc(-c2cc(C(C)C)c(O)cc2O)c1-c1ccc(CN2CCOCC2)cc1` [Luminespib (AUY-922)]: the “% Enzyme Activity (relative to DMSO controls)” value stood at 100.35% on 382 unique human kinases [1], 101.62% on 382 unique human kinases [2], 109.18% at 382 unique human kinases [3] and 110.03% on 382 unique human kinases [4]. Besides, the remaining activity at 10 µM on 382 unique human kinases [1] worked out at 100%; on 382 unique human kinases [2], 104%; at 382 unique human kinases [3], 110%; at 382 unique human kinases [4], 111%.
For `CCNC(=O)c1noc(-c2cc(C(C)C)c(O)cc2O)c1-c1ccc(CN2CCOCC2)cc1` [Luminespib], on 382 unique human kinases [5], the “% Enzyme Activity (relative to DMSO controls)” value is 81.04% and the remaining activity at 10 µM was determined as 82.2%. Also, on 382 unique human kinases [6], the “% Enzyme Activity (relative to DMSO controls)” value came to 94.49% and the remaining activity at 10 µM stood at 96%.
